According to patent US12202835B2, “Substituted aromatic ring-linked dioxinoquinazolines and dioxinoquinolines as kinase inhibitors” (BEIJING SCITECH-MQ PHARMACEUTICALS LIMITED, priority 2018, dated 2025):

Experiments:
Assay type in all cases: biochemical
[1] = target: c-MET kinase (Homo sapiens (Human), UniProt P08581); assay: Assay of small molecular compounds for inhibiting the activity of c-MET kinase (LANCE TR-FRET); settings: read-out: CMET IC50
Procedure: The assay is based on the LANCE TR-FRET technology of Perkin Elmer Inc., and the assay method is as follows: • 1. Dilution of compounds: a total of 11 concentrations were obtained using a 3-fold gradient dilution from the highest concentration of 2500 nM (the maximum final concentration of the drug used in this assay was 2500 nM, and the minimum final concentration was 0.042 nM). • 2. 2.5 μL of the gradient-diluted compounds were taken with a transfer pipette to a 384-well plate. • 3. Addition of enzyme: 5 μL of 2×c-MET kinase solution (with a concentration of 2 nM) was taken with a transfer pipette to the corresponding reaction well of the 384-well plate, mixed well and pre-reacted at room temperature for 5 minutes. • 4. 2.5 μL 4× Ultra ULight™-JAK-1 (Tyr1023) Peptide (with a concentration of 400 nM)/ATP (with a concentration of 40 μM) mixture was taken with a transfer pipette to the corresponding reaction well of the 384-well plate. • 5. Negative control: 2.5 μL/well 4× substrate/ATP mixture and 7.5 μL 1× Kinase Assay Buffer were added to the wells of the 384-well plate. • 6. Positive control: 2.5 μL/well 4× substrate/ATP mixture, 2.5 μL/well 1× Kinase Assay Buffer containing 16% DMSO, and 5 μL/well 2× c-MET kinase solution were added to the 384-well plate. The final concentration of DMSO in the reaction system was 4%. • 7. The mixture was mixed well and then centrifuged and reacted at room temperature in dark for 60 min. • 8. Termination of the enzymatic reaction: 5 μL of 4× stop solution was taken with a transfer pipette to the wells of the 384-well plate, mixed and then centrifuged, and reacted at room temperature for 5 min. • 9. Development of the reaction: 5 μL of 4× detection solution was taken with a transfer pipette to the wells of the 384-well plate for color development, and the mixture was mixed and then centrifuged and reacted at room temperature for 60 min. • 10. The 384-well plate was placed into the Envision plate reader and the signal was detected using the appropriate program. • 11. Analysis and processing of the raw data: • 12. The drug concentrations and the corresponding inhibition rates were input into GraphPad Prism5 for calculation, and the inhibition rate of the compounds were calculated as follows: inhibition rate (%)=(reading of positive well−reading of experimental well)/(reading of positive control well−reading of negative control well)×100%. Processing with GraphPad Prism5 software yielded the corresponding IC50 values (the concentration of the compound at which 50% of the highest inhibition of the enzyme is achieved).

[2] = target: MER kinase (Homo sapiens (Human), UniProt Q12866); assay: Assay of small molecular compounds for inhibiting the activity of MER kinase (LANCE TR-FRET)
Sequence of MER kinase (Q12866 21-999): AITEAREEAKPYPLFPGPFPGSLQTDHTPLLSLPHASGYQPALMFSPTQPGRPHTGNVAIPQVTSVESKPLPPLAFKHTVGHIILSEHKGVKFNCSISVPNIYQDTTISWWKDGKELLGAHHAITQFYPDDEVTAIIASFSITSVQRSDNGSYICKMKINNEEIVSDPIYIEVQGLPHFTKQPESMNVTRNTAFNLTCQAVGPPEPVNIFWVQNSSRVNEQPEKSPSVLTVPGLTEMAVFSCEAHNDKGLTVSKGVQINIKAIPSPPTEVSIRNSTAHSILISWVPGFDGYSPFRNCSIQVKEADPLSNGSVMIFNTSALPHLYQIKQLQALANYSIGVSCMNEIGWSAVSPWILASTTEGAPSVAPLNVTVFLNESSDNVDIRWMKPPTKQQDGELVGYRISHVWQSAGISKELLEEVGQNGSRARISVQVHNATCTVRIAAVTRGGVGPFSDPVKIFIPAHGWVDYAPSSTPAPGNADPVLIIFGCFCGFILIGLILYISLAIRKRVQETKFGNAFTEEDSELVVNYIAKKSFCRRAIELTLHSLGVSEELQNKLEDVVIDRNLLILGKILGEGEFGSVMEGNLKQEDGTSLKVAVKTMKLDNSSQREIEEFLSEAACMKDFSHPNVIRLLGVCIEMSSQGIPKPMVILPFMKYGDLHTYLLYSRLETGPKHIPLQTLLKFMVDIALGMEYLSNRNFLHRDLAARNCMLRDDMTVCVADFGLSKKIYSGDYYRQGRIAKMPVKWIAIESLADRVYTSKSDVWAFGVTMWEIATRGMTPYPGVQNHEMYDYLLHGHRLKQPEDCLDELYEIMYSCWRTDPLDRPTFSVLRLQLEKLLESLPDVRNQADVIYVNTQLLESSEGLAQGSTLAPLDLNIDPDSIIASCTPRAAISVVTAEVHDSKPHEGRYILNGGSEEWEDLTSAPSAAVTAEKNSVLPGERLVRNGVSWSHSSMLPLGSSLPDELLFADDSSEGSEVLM
Procedure: The assay of small molecular compounds for inhibiting the activity of MER kinase is based on the LANCE TR-FRET technology of Perkin Elmer Inc., and the assay method is as follows: • 1. Dilution of compounds: a total of 11 concentrations were obtained using a 3-fold gradient dilution from the highest concentration of 2500 nM (the maximum final concentration of the drug used in this assay was 2500 nM, and the minimum final concentration was 0.042 nM). • 2. 2.5 μL of the gradient-diluted compounds were taken with a transfer pipette to a 384-well plate. • 3. Addition of enzyme: 5 μL of 2×MER kinase solution (with a concentration of 1 nM) was taken with a transfer pipette to the corresponding reaction well of the 384-well plate, mixed well and pre-reacted at room temperature for 5 minutes. • 4. 2.5 μL 4× ULight-labeled Ploy GT (with a concentration of 200 nM)/ATP (with a concentration of 20 μM) mixture was taken with a transfer pipette to the corresponding reaction well of the 384-well plate. • 5. Negative control: 2.5 μL/well 4× substrate/ATP mixture and 7.5 μL 1× Kinase Assay Buffer were added to the wells of the 384-well plate.
(§1) Positive control: 2.5 μL/well 4× substrate/ATP mixture, 2.5 μL/well 1× Kinase Assay Buffer containing 4% DMSO, and 5 μL/well 2×MER kinase solution were added to the 384-well plate. The final concentration of DMSO in the reaction system was 1%. • 6. The mixture was mixed well and then centrifuged and reacted at room temperature in dark for 60 min. • 7. Termination of the enzymatic reaction: 5 μL of 4× stop solution was taken with a transfer pipette to the wells of the 384-well plate, mixed and then centrifuged, and reacted at room temperature for 5 min. • 8. Development of the reaction: 5 μL of 4× detection solution was taken with a transfer pipette to the wells of the 384-well plate for color development, and the mixture was mixed and then centrifuged and reacted at room temperature for 60 min. • 9. The 384-well plate was placed into the Envision plate reader and the signal was detected using the appropriate program. • 10. Analysis and processing of the raw data:
The drug concentrations and the corresponding inhibition rates were input into GraphPad Prism5 for calculation, and the inhibition rate of the compounds were calculated as follows: inhibition rate (%)=(reading of positive well−reading of experimental well)/(reading of positive control well−reading of negative control well)×100%. Processing with GraphPad Prism5 software yielded the corresponding IC50 values (the concentration of the compound at which 50% of the highest inhibition of the enzyme is achieved).

[3] = target: TRKA kinase (Homo sapiens (Human), UniProt P04629); assay: Assay of small molecular compounds for inhibiting the activity of TRKA kinase (LANCE TR-FRET)
Sequence of TRKA kinase (P04629 33-796): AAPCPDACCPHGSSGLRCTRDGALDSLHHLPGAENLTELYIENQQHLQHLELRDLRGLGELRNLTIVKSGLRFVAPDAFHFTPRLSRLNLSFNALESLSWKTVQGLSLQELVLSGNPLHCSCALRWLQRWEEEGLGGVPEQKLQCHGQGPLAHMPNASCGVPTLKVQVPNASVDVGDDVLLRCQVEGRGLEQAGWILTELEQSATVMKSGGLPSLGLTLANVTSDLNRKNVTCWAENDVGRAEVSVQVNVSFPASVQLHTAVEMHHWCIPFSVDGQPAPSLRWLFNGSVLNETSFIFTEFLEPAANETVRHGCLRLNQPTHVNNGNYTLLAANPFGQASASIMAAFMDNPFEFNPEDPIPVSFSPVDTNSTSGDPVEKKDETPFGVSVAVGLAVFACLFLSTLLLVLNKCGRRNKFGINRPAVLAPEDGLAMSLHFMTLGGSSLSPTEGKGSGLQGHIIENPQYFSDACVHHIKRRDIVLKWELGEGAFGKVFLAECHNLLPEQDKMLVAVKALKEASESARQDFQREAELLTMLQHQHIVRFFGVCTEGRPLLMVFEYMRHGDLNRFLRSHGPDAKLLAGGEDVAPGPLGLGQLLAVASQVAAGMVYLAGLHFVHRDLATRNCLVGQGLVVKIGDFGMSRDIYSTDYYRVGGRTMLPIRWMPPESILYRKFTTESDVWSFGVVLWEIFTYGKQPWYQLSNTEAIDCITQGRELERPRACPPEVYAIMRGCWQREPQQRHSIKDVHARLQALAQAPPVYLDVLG
Procedure: The assay of small molecular compounds for inhibiting the activity of TRKA kinase is based on the LANCE TR-FRET technology of Perkin Elmer Inc., and the assay method is as follows: • 1. […] 2.5 μL of the gradient-diluted compounds were taken with a transfer pipette to a 384-well plate. • 3. Addition of enzyme: 5 μL of 2×TRKA kinase solution (with a concentration of 2 nM) was taken with a transfer pipette to the corresponding reaction well of the 384-well plate, mixed well and pre-reacted at room temperature for 5 minutes. • 4. 2.5 μL 4× Ultra ULight-labeled TK Peptide (with a concentration of 400 nM)/ATP (with a concentration of 40 μM) mixture was taken with a transfer pipette to the corresponding reaction well of the 384-well plate. • 5. Negative control: 2.5 μL/well 4× substrate/ATP mixture and 7.5 μL 1× Kinase Assay Buffer were added to the wells of the 384-well plate.
as §1, with “2×TRKA” for “2×MER”, “program.” for “program. • 10. Analysis and processing of the raw data:”

Sequence of c-MET kinase (P08581 25-1390): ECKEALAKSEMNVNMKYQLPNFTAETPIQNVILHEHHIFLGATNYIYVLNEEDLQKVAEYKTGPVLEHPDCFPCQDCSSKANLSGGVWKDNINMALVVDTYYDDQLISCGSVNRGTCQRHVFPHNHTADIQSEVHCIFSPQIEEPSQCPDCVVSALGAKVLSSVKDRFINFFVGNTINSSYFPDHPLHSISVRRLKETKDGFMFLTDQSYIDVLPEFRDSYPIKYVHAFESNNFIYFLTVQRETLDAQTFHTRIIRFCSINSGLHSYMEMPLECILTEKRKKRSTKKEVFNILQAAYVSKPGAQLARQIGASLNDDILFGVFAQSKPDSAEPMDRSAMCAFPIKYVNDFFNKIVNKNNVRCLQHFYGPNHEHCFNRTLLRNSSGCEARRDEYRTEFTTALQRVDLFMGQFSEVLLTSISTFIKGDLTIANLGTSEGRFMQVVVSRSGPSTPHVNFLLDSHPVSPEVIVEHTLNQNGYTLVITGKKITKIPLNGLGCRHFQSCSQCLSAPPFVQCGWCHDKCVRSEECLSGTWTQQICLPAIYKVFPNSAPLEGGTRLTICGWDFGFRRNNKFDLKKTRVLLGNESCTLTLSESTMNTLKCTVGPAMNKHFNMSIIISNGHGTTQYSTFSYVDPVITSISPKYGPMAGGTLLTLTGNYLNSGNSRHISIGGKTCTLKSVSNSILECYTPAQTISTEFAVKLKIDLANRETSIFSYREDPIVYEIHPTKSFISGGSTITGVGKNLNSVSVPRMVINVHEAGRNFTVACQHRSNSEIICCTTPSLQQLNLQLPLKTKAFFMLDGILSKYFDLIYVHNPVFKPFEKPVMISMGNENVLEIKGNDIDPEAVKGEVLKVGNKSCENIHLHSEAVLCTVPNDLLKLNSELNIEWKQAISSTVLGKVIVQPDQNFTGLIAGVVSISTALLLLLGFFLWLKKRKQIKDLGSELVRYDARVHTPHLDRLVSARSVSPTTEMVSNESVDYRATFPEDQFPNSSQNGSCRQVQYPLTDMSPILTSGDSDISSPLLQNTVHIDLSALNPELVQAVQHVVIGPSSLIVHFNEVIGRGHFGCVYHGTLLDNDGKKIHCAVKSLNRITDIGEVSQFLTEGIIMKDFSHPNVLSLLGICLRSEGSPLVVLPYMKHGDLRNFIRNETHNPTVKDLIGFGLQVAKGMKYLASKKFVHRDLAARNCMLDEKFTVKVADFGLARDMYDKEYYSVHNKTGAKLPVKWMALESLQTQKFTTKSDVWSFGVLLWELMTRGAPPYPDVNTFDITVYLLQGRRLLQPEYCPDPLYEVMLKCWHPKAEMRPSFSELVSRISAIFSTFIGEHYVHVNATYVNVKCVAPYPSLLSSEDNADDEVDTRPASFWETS

COc1cc2ncnc(Oc3ccc(NC(=O)c4ccn(-c5ccc(F)cc5C)n4)cc3F)c2c2c1OCCO2 [Example 7, 1-(4-fluoro-2-methylphenyl)-N-(3-fluoro-4-((5-methoxy-2,3-dihydro-[1,4]dioxino[2,3-f]quinazolin-10-yl)oxy)phenyl)-1H-pyrazole-3-carboxamide]
IC50 [1]: 50 to 500 nM
IC50 [2]: 500 to 5000 nM

COc1cn(-c2ccc(F)cc2C)nc1C(=O)Nc1ccc(Oc2ncnc3cc(OC)c4c(c23)OCCO4)c(F)c1 [Example 8, 1-(4-fluoro-2-methylphenyl)-N-(3-fluoro-4-((5-methoxy-2,3-dihydro-[1,4]dioxino[2,3-f]quinazolin-10-yl)oxy)phenyl)-4-methoxy-1H-pyrazole-3-carboxamide]
IC50 [1]: 50 to 500 nM
IC50 [2]: 500 to 5000 nM

COc1cc2nccc(Oc3ccc(NC(=O)c4cn(C(C)C)c(=O)n(C5CCCCC5)c4=O)cc3F)c2c2c1OCCO2 [Example 157, N-(3-fluoro-4-((5-methoxy-2,3-dihydro-[1,4]dioxino[2,3-f]quinolin-10-yl)oxy)phenyl)-3-cyclohexyl-1-isopropyl-2,4-dioxo-1,2,3,4-tetrahydropyrimidine-5-carboxamide]
IC50 [3]: 500 to 5000 nM
IC50 [2]: 50 to 500 nM

Cn1cc(C(=O)Nc2ccc(Oc3ccnc4ccc5c(c34)OCCO5)c(F)c2)c(=O)n(-c2ccc(F)cc2)c1=O [Example 160, N-(4-((2,3-dihydro-[1,4]dioxino[2,3-f]quinolin-10-yl)oxy)-3-fluorophenyl)-3-(4-fluorophenyl)-1-methyl-2,4-dioxo-1,2,3,4-tetrahydropyrimidine-5-carboxamide]
IC50 [3]: 50 to 500 nM

CCn1cc(C(=O)Nc2ccc(Oc3ccnc4ccc5c(c34)OCCO5)c(F)c2)c(=O)n(-c2ccc(F)cc2)c1=O [Example 161, N-(4-((2,3-dihydro-[1,4]dioxino[2,3-f]quinolin-10-yl)oxy)-3-fluorophenyl)-3-(4-fluorophenyl)-1-ethyl-2,4-dioxo-1,2,3,4-tetrahydropyrimidine-5-carboxamide]
IC50 [3]: 50 to 500 nM

CCn1cc(C(=O)Nc2ccc(Oc3ccnc4ccc5c(c34)OCCO5)cc2F)c(=O)n(-c2ccc(F)cc2)c1=O [Example 163, N-(4-((2,3-dihydro-[1,4]dioxino[2,3-f]quinolin-10-yl)oxy)-2-fluorophenyl)-3-(4-fluorophenyl)-1-ethyl-2,4-dioxo-1,2,3,4-tetrahydropyrimidine-5-carboxamide]
IC50 [3]: 50 to 500 nM

CCOc1ccn(-c2ccc(F)cc2)c(=O)c1C(=O)Nc1ccc(Oc2ccnc3ccc4c(c23)OCCO4)cc1 [Example 164, N-(4-((2,3-dihydro-[1,4]dioxino[2,3-f]quinolin-10-yl)oxy)phenyl)-4-ethoxy-1-(4-fluorophenyl)-2-oxo-1,2-dihydropyridine-3-carboxamide]
IC50 [3]: 50 to 500 nM
IC50 [1]: ≤ 50 nM

O=C(Nc1ccc(Oc2ccnc3ccc4c(c23)OCCO4)cc1)c1cccn(-c2ccc(F)cc2)c1=O [Example 165, N-(4-((2,3-dihydro-[1,4]dioxino[2,3-f]quinolin-10-yl)oxy)phenyl)-1-(4-fluorophenyl)-2-oxo-1,2-dihydropyridine-3-carboxamide]
IC50 [3]: 50 to 500 nM
IC50 [1]: ≤ 50 nM

COc1ccn(-c2ccc(F)cc2)c(=O)c1C(=O)Nc1ccc(Oc2ccnc3ccc4c(c23)OCCO4)cc1 [Example 166, N-(4-((2,3-dihydro-[1,4]dioxino[2,3-f]quinolin-10-yl)oxy)phenyl)-4-methoxy-1-(4-fluorophenyl)-2-oxo-1,2-dihydropyridine-3-carboxamide]
IC50 [3]: 50 to 500 nM
IC50 [1]: 50 to 500 nM

COc1ccn(-c2ccc(F)cc2)c(=O)c1C(=O)Nc1ccc(Oc2ccnc3ccc4c(c23)OCCO4)c(F)c1 [Example 167, N-(4-((2,3-dihydro-[1,4]dioxino[2,3-f]quinolin-10-yl)oxy)-3-fluorophenyl)-1-(4-fluorophenyl)-4-methoxy-2-oxo-1,2-dihydropyridine-3-carboxamide]
IC50 [3]: 50 to 500 nM
IC50 [1]: ≤ 50 nM

CCOc1ccn(-c2ccc(F)cc2)c(=O)c1C(=O)Nc1ccc(Oc2ccnc3ccc4c(c23)OCCO4)c(F)c1 [Example 168, N-(4-((2,3-dihydro-[1,4]dioxino[2,3-f]quinolin-10-yl)oxy)-3-fluorophenyl)-1-(4-fluorophenyl)-4-ethoxy-2-oxo-1,2-dihydropyridine-3-carboxamide]
IC50 [3]: 50 to 500 nM

Cn1cc(C(=O)Nc2cc(F)c(Oc3ccnc4ccc5c(c34)OCCO5)cc2Cl)c(=O)n(-c2ccc(F)cc2)c1=O [Example 173, N-(2-chloro-4-((2,3-dihydro-[1,4]dioxino[2,3-f]quinolin-10-yl)oxy)-5-fluorophenyl)-3-(4-fluorophenyl)-1-methyl-2,4-dioxo-1,2,3,4-tetrahydropyrimidine-5-carboxamide]
IC50 [3]: 50 to 500 nM

CCn1cc(C(=O)Nc2cc(F)c(Oc3ccnc4ccc5c(c34)OCCO5)cc2Cl)c(=O)n(-c2ccc(F)cc2)c1=O [Example 174, N-(2-chloro-4-((2,3-dihydro-[1,4]dioxino[2,3-f]quinolin-10-yl)oxy)-5-fluorophenyl)-3-(4-fluorophenyl)-1-ethyl-2,4-dioxo-1,2,3,4-tetrahydropyrimidine-5-carboxamide]
IC50 [3]: < 50 nM

CCn1cc(C(=O)Nc2cc(F)c(Oc3ccnc4ccc5c(c34)OCCO5)cc2C)c(=O)n(-c2ccc(F)cc2)c1=O [Example 176, N-(4-((2,3-dihydro-[1,4]dioxino[2,3-f]quinolin-10-yl)oxy)-5-fluoro-2-methylphenyl)-3-(4-fluorophenyl)-1-ethyl-2,4-dioxo-1,2,3,4-tetrahydropyrimidine-5-carboxamide]
IC50 [3]: 50 to 500 nM
